# Test results reported in US12059400B2, “Medical compound” (VERA SALUS RICERCA S.R.L., priority 2017, dated 2024).
# Assays:
# [1] = system: normal cells (human skin fibroblasts, WS1); assay: Apoptosis, acridine orange/ethidium bromide method; type: cell-based; conditions: 2 hrs; Compound 2 40 μM, 5 40 μM, 4 40 μM, 3 60 μM, 1 80 μM; FIG. 18
# [2] = system: H1299, lung adenocarcinoma cells; assay: Cell proliferation, crystal violet method; type: cell-based, human; conditions: spectrophotometer, read-out: IC50 anti-proliferative effect, LC (H1299)
# Procedure: The compound according to the invention, and in particular the synthetic quercetin derivatives described and illustrated herein were investigated in vitro by using human tumour cells and assessing their impact on the tumour proliferative capacity, with regard to the tumours described above. In particular, the following human tumour cell lines were assessed experimentally: 1) HCT116, colon adenocarcinoma cells; 2) H1299, lung adenocarcinoma cells; 3) A375, melanoma cells, and 4) A431, squamous skin cell carcinoma; 5) 786-0, renal carcinoma cells; 6) PC3, prostate carcinoma cells; 7) BT549, mammary carcinoma cells; 8) CAL27, tongue carcinoma cells (belonging to the head-and-neck carcinomas); 9) HepG2, hepatocellular carcinoma cells; 10) PANC-1, pancreas carcinoma cells; 11) T24, bladder carcinoma cells; 12) OVCAR-3, ovarian carcinoma cells. In addition, a normal human cell line, WS1 (skin fibroblasts) was also treated with the novel synthetic compounds.
# (§1) Cell proliferation was quantified by the crystal violet method with a spectrophotometer. In short, after acquiring serial images (0, 24 and 48 hrs) with the EVOS XL Cell Imaging System microscope (Thermo Fisher Scientific), the cells imaged at 48 hrs were fixed with paraformaldehyde (4%) and stained with Crystal Violet (1%). Then, the specific absorbance (λ=590 nm) at 48 hrs was measured with a spectrophotometer (Infinite®200 PRO, Tecan). Data analysis was carried out by using ad-hoc Excel files for graphical representation and statistical processing (t-test). Moreover, the results obtained with Crystal Violet were confirmed by using another cell proliferation assessment method based on the real time cellular analyzer XCELLigence RTCA DP (ACEA Biosciences, Inc.). This tool allows cell growth to be monitored from electrical impedance-derived quantitative values (the so-called Cell Index) measured by tiny electrodes located at the base of the culture wells. Proliferation is monitored for several days (5-7) by setting a Cell Index per minute measure on the instrument. The data are analysed by processing various parameters calculated by the dedicated software, such as the cell duplication time, the slope and the Max Cell Index.
# Cell proliferation was quantitated spectrophotometrically by the crystal violet method.
# [3] = system: human colon carcinoma cells (HCT116); assay: Cell cycle progression, propidium iodide method, cytofluorimeter; type: cell-based; conditions: for halt of HCT116 tumour cells in S of the cell cycle: 24 hrs, at the respective anti-proliferative IC50s, FIG. 20
# Procedure: (§2) Progression through the tumour cell cycle was assessed by the propidium iodide method and quantification of the cell DNA content with a cytofluorimeter. Briefly, after treatment (in duplicate) with the test compounds (24 hrs), the tumour cells were washed (with PBS), detached with trypsin-EDTA and pelleted by centrifugation (125 g for 6 min). The cells were then fixed in ethanol (70%) and stored in the freezer (−20° C.) for 1-3 days. After further washing (PBS) and treatment with RNAse (50 ug/ml), the cells were contacted (on ice in the dark; 30 min) with propidium iodide (50 μg/ml). FL2 and FL3 cytofluorimeter readings analysed approximately 50,000 cells (1 μl/second) per sample. Statistical analysis and graphical representation were performed by using t-tests and preset Excel property files.
# [4] = system: human melanoma cells (A375); assay: as above; type: cell-based; conditions: for halt of A375 tumour cells in S and/or G2 of the cell cycle: 24 hrs, at the respective anti-proliferative IC50s, FIG. 19
# Procedure: as §2
# [5] = system: human bladder carcinoma cells (T24); assay: Cell proliferation, crystal violet method; type: cell-based; conditions: for T24 cell growth vs vehicle control: 80 μM, FIG. 10a, 10b; for IC50: crystal violet, spectrophotometer, read-out: IC50 anti-proliferative effect, BC (T24)
# Procedure: as §1, with “The compound according to the invention, and in particular the synthetic quercetin derivatives described and illustrated herein were investigated in vitro by using human tumour cells and assessing their impact on the tumour proliferative capacity, with regard to the tumours described above. In particular, the following human tumour cell lines were assessed experimentally: 1) HCT116, colon adenocarcinoma cells; 2) H1299, lung adenocarcinoma cells; 3) A375, melanoma cells, and 4) A431, squamous skin cell carcinoma; 5) 786-0, renal carcinoma cells; 6) PC3, prostate carcinoma cells; 7) BT549, mammary carcinoma cells; 8) CAL27, tongue carcinoma cells (belonging to the head-and-neck carcinomas); 9) HepG2, hepatocellular carcinoma cells; 10) PANC-1, pancreas carcinoma cells; 11) T24, bladder carcinoma cells; 12) OVCAR-3, ovarian carcinoma cells. In addition, a normal human cell line, WS1 (skin fibroblasts) was also treated with the novel synthetic compounds. Cell proliferation” for “Cell proliferation”, “Cell Index. […] Cell proliferation was quantitated spectrophotometrically by the crystal violet method.” for “Cell Index.”
# [6] = system: human pancreatic carcinoma cells (PANC-1); assay: Cell proliferation, crystal violet method; type: cell-based; conditions: for PANC-1 cell growth vs vehicle control: 80 μM, FIG. 9a, 9b; for IC50: crystal violet, spectrophotometer, read-out: IC50 anti-proliferative effect, PCC (PANC-1)
# Procedure: as §1, with “The compound according to the invention, and in particular the synthetic quercetin derivatives described and illustrated herein were investigated in vitro by using human tumour cells and assessing their impact on the tumour proliferative capacity, with regard to the tumours described above. In particular, the following human tumour cell lines were assessed experimentally: 1) HCT116, colon adenocarcinoma cells; 2) H1299, lung adenocarcinoma cells; 3) A375, melanoma cells, and 4) A431, squamous skin cell carcinoma; 5) 786-0, renal carcinoma cells; 6) PC3, prostate carcinoma cells; 7) BT549, mammary carcinoma cells; 8) CAL27, tongue carcinoma cells (belonging to the head-and-neck carcinomas); 9) HepG2, hepatocellular carcinoma cells; 10) PANC-1, pancreas carcinoma cells; 11) T24, bladder carcinoma cells; 12) OVCAR-3, ovarian carcinoma cells. In addition, a normal human cell line, WS1 (skin fibroblasts) was also treated with the novel synthetic compounds. Cell proliferation” for “Cell proliferation”, “Cell Index. […] Cell proliferation was quantitated spectrophotometrically by the crystal violet method.” for “Cell Index.”
# [7] = system: human renal carcinoma cells (786-0); assay: Cell proliferation, crystal violet method; type: cell-based; conditions: for 786-0 cell growth vs vehicle control: 80 μM, FIG. 4a, 4b; for IC50: crystal violet, spectrophotometer, read-out: IC50 anti-proliferative effect, RCC - (786-O)
# Procedure: as §1, with “The compound according to the invention, and in particular the synthetic quercetin derivatives described and illustrated herein were investigated in vitro by using human tumour cells and assessing their impact on the tumour proliferative capacity, with regard to the tumours described above. In particular, the following human tumour cell lines were assessed experimentally: 1) HCT116, colon adenocarcinoma cells; 2) H1299, lung adenocarcinoma cells; 3) A375, melanoma cells, and 4) A431, squamous skin cell carcinoma; 5) 786-0, renal carcinoma cells; 6) PC3, prostate carcinoma cells; 7) BT549, mammary carcinoma cells; 8) CAL27, tongue carcinoma cells (belonging to the head-and-neck carcinomas); 9) HepG2, hepatocellular carcinoma cells; 10) PANC-1, pancreas carcinoma cells; 11) T24, bladder carcinoma cells; 12) OVCAR-3, ovarian carcinoma cells. In addition, a normal human cell line, WS1 (skin fibroblasts) was also treated with the novel synthetic compounds. Cell proliferation” for “Cell proliferation”, “Cell Index. […] Cell proliferation was quantitated spectrophotometrically by the crystal violet method.” for “Cell Index.”
# [8] = system: human prostate carcinoma cells (PC3); assay: Cell proliferation, crystal violet method; type: cell-based; conditions: for PC3 cell growth vs vehicle control: 80 μM, FIG. 5a, 5b; for IC50: crystal violet, spectrophotometer, read-out: IC50 anti-proliferative effect, PC - (PC3)
# Procedure: as §1, with “The compound according to the invention, and in particular the synthetic quercetin derivatives described and illustrated herein were investigated in vitro by using human tumour cells and assessing their impact on the tumour proliferative capacity, with regard to the tumours described above. In particular, the following human tumour cell lines were assessed experimentally: 1) HCT116, colon adenocarcinoma cells; 2) H1299, lung adenocarcinoma cells; 3) A375, melanoma cells, and 4) A431, squamous skin cell carcinoma; 5) 786-0, renal carcinoma cells; 6) PC3, prostate carcinoma cells; 7) BT549, mammary carcinoma cells; 8) CAL27, tongue carcinoma cells (belonging to the head-and-neck carcinomas); 9) HepG2, hepatocellular carcinoma cells; 10) PANC-1, pancreas carcinoma cells; 11) T24, bladder carcinoma cells; 12) OVCAR-3, ovarian carcinoma cells. In addition, a normal human cell line, WS1 (skin fibroblasts) was also treated with the novel synthetic compounds. Cell proliferation” for “Cell proliferation”, “Cell Index. […] Cell proliferation was quantitated spectrophotometrically by the crystal violet method.” for “Cell Index.”
Substance,induction of apoptosis in normal cells WS1 [1],IC50 [2] [µM],halt of HCT116 tumour cells in S of the cell cycle [3],halt of A375 tumour cells in S and/or G2 of the cell cycle [4],T24 cell growth vs vehicle control [5],IC50 [5] [µM],PANC-1 cell growth vs vehicle control [6],IC50 [6] [µM],786-0 cell growth vs vehicle control [7],IC50 [7] [µM],PC3 cell growth vs vehicle control [8],IC50 [8] [µM],"effect on the HCT116 cell cycle in presence of ROS scavenger NAC ([3]; Compound at its anti-proliferative IC50 + N-Acetyl Cysteine 10 mM, FIG. 21 left)","effect on the A375 cell cycle in presence of ROS scavenger NAC ([4]; Compound at its anti-proliferative IC50 + N-Acetyl Cysteine 10 mM, FIG. 21 right)"
"2-(3,4-Dihydroxyphenyl)-3-hexadecyloxy-5,7-dihydroxy-4H-chromen-4-one [Compound 3]",not in normal cells,34.9,significantly halt,exception,significantly inhibit,44.9,significantly inhibit,156,significantly inhibit,65.4,significantly inhibit,46.2,,
"2-(3,4-Dihydroxyphenyl)-3-ethoxy-5,7-dihydroxy-4H-chromen-4-one [Compound 1]",not in normal cells,100,significantly halt,significantly halt,,> 1000,,> 1000,significantly inhibit,149,significantly inhibit,79.3,partly mediated by ROS,partly mediated by ROS
"2-(3,4-Dihydroxyphenyl)-3-hexyloxy-5,7-dihydroxy-4H-chromen-4-one [Compound 2]",not in normal cells,50.7,,significantly halt,significantly inhibit,66.8,significantly inhibit,95.4,significantly inhibit,72.5,,309,,
"2-(3,4-dihydroxyphenyl)-5,7-dihydroxy-4-oxo-4H-chromen-3-yl acetate [Compound 4]",not in normal cells,15.9,significantly halt,significantly halt,significantly inhibit,45.5,significantly inhibit,69.6,significantly inhibit,41.2,significantly inhibit,34.9,,
"2-(3,4-dihydroxyphenyl)-5,7-dihydroxy-4-oxo-4H-chromen-3-yl palmitate [Compound 5]",not in normal cells,50.5,,significantly halt,significantly inhibit,50.5,significantly inhibit,69.4,significantly inhibit,32.6,significantly inhibit,56.9,,
